Assay results: patent publication US11384099B2, “Pyrazolopyridinone compounds” (Janssen Pharmaceutica NV, priority 2017, dated 2022)
One block for each compound: values may come before it.

Columns and labels:
[1] = biological target: T1, human FGFR3 wild type enzyme (cytoplasmic domain) (Homo sapiens, UniProt P22607); experiment: FGFR3 wild type mobility shift assay (enzymatic assay, Caliper); type: biochemical; conditions: 75 μM ATP, 50 minutes at 30° C.
T1 construct: human FGFR3 wild type enzyme (cytoplasmic domain, from Cama Biosciences); purchased Carna Biosciences
Procedure: FGFR3 Wild Type Mobility Shift Assay (Enzymatic Assay)
(§1) In a final reaction volume of 25 μL, 0.04 ng/μL human FGFR3 wild type enzyme (cytoplasmic domain, from Cama Biosciences) was incubated with 75 μM ATP, 1 μM FL-peptide 30 substrate and 250 nL of testing compound (1% DMSO final) in assay buffer (100 mM HEPES pH 7.4, 10 mM MgCl2, 0.003% Brij35, 1 mM DTT). After incubation for 50 minutes at 30° C. the reaction was stopped with 10 μL of 0.5M EDTA pH 8.0, and then L of reaction mixture was transferred to reading plate and measured on Caliper EZ reader II.

[2] = biological target: T2, human FGFR3 V555M enzyme (cytoplasmic domain carrying V555M mutation) (Homo sapiens, UniProt P22607, V555M); experiment: FGFR3 V555M mobility shift assay (enzymatic assay, Caliper); type: biochemical; conditions: 30 μM ATP, 45 minutes at 30° C.
T2 construct: cytoplasmic domain carrying V555M mutation, from Carna Biosciences; purchased Carna Biosciences
Procedure: FGFR3 V555M Mobility Shift Assay (Enzymatic Assay)
as §1, with “FGFR3 V555M” for “FGFR3 wild type”, “(cytoplasmic domain carrying V555M mutation,” for “(cytoplasmic domain,”, “from Carna” for “from Cama”, “with 30” for “with 75”, “for 45” for “for 50”

[3] = system: NIH/3T3 cells transfected with control vector (MOCK); experiment: NIH/3T3 mock cell proliferation assay (CTG, counter assay); type: cell-based; conditions: Mus musculus, NIH3T3; 72-hr incubation, CellTiter Glo; counter assay for general toxicity
Procedure: NIH/3T3 Mock Cell Proliferation Assay
(§2) In day 1, 90 μL of cell suspension (NIH/3T3 cells transfected with the same control vector as in the above two proliferation assays) (total 30,000 cells per well in growth medium (DMEM containing 1% Glutamax, 10% FBS and 1% Pen/Strep)) was seeded in a 96-well plate and then incubated overnight at 37° C. and 5% CO2. In day 2, 10 μL of growth medium containing 10-fold stock solution of testing compound was added into cell cultures (9 dose points with 3× serial dilution, starting with 30 μM, 0.3% DMSO final). After 72-hr incubation at 37° C. and 5% CO2, in day 5 a volume of 50 μL CellTiter Glo (CTG) reagent was added into cell-containing 96-well plate and the plate was incubated at room temperature for 10 minutes before RLUs (relative light unit) were measured on a microplate reader with luminescence detection module. The RLU value was normalized to survival % and concentration-response curve was plotted using Prism to calculate IC50 (M), pIC50 (−log IC50) and HillSlope value.

[4] = biological target: T3, NIH/3T3 cells overexpressing FGFR3 WT-TACC3 fusion protein (Homo sapiens, UniProt P22607); experiment: NIH/3T3 FGFR3 WT-TACC3 cell proliferation assay (CTG); type: cell-based; conditions: 72-hr incubation, CellTiter Glo; read-out: NIH/3T3 FGFR3 WT-TACC3 CTG (IC50)
T3 construct: NIH/3T3 FGFR3 WT-TACC3 CTG (IC50); other: 72-hr incubation, CellTiter Glo; fused on or other part: C-terminal coiled-coil part of TACC3 (part of the key, as a fusion known from patients); Q9Y6A5 (Transforming acidic coiled-coil-containing protein 3)
Procedure: NIH/3T3 FGFR3 WT-TACC3 Cell Proliferation Assay
as §2, with “cells overexpressing FGFR3 WT-TACC3 fusion protein)” for “cells transfected with the same control vector as in the above two proliferation assays)”, “with 4×” for “with 3×”, “with 10” for “with 30”, “μM, 0.1%” for “μM, 0.3%”

[5] = system: NIH/3T3 cells overexpressing FGFR3 WT-TACC3 fusion protein; experiment: NIH/3T3 FGFR3 WT-TACC3 cellular phospho-ERK assay (in vitro PD assay); type: cell-based; conditions: Mus musculus, NIH3T3; 1-hr incubation, AlphaLISA SureFire Ultra p-ERK1/2; read-out: NIH/3T3 FGFR3 WT-TACC3 pERK (IC50)
Procedure: NIH/3T3 FGFR3 WT-TACC3 Cellular Phospho-ERK Assay (In Vitro PD Assay)
(§3) 50 uL of cell suspension (NIH/3T3 cells overexpressing FGFR3 WT-TACC3 fusion protein) (total 10,000 cells per well in growth medium (DMEM containing 1% Glutamax, 10% FBS and 1% Pen/Strep)) was seeded in a 384-well plate. After overnight incubation at 37° C. and 5% CO2, 5.5 μL of growth medium containing 10× testing compound was added into cell cultures (10 dose points with 4× serial dilution, starting with 10 μM, 0.1% DMSO final). After 1-hr incubation at 37° C. and 5% CO2, the medium was depleted and AlphaLISA SureFire Ultra p-ERK1/2 (Thr202/Tyr204) Assay Kit (from PerkinElmer) was applied for phospho-ERK level detection according to the kit instructions. The RFUs (relative fluorescence units were measured on EnVision microplate reader (ex. 680 nm, em. 615 nm) and concentration-response curve was plotted using Prism to calculate IC50 (M), pIC50 (−log IC50) and HillSlope value.

[6] = system: NIH/3T3 cells overexpressing FGFR3 V555M-TACC3 fusion protein; experiment: NIH/3T3 FGFR3 V555M-TACC3 cellular phospho-ERK assay (in vitro PD assay); type: cell-based; conditions: Mus musculus, NIH3T3; 1-hr incubation, AlphaLISA SureFire Ultra p-ERK1/2; read-out: NIH/3T3 FGFR3 V555M-TACC3 pERK (IC50)
Procedure: NIH/3T3 FGFR3 V555M-TACC3 Cellular Phospho-ERK Assay (In Vitro PD Assay)
as §3, with “μL” for “uL”, “V555M-TACC3” for “WT-TACC3”

T3 sequence (P22607 whole entry, change not shown, the tested form may be a part): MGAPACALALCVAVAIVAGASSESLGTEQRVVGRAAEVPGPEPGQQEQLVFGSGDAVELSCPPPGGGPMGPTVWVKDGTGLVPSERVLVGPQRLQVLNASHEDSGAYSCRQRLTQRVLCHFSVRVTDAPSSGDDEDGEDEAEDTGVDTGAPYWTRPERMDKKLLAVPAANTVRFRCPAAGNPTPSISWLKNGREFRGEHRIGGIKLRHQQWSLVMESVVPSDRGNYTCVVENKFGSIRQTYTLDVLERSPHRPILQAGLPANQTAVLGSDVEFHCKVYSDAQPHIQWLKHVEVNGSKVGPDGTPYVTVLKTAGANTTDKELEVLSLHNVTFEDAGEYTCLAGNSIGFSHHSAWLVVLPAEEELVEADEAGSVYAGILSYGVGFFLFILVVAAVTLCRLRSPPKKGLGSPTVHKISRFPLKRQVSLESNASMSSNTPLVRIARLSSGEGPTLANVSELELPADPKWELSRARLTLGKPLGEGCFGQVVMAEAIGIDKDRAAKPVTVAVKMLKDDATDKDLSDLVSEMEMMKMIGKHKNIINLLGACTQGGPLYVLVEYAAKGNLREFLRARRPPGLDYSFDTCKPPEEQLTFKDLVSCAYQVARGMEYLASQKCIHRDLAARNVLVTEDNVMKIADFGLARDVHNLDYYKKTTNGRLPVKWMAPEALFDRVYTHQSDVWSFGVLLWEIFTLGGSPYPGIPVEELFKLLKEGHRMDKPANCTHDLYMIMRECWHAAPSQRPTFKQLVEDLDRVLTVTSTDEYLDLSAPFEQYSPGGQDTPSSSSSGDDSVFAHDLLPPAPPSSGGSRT
T1 sequence (P22607 397-806 limits assumed): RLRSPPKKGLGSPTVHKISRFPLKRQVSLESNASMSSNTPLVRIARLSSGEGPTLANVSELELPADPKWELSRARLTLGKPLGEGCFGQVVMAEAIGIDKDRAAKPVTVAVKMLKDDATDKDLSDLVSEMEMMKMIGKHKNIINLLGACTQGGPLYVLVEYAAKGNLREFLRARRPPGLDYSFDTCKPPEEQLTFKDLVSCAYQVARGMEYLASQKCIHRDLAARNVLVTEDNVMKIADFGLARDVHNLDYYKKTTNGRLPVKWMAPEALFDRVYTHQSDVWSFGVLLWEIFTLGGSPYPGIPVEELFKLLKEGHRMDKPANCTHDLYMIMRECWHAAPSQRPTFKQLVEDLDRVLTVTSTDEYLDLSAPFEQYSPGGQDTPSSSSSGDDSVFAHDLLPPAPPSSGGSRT
T2 sequence (P22607 397-806 V555M limits assumed): as the sequence (P22607 397-806 limits assumed) above, with V159M counted along it

Structure (SMILES): CCn1cc2[nH]c(=O)c(-c3nc4cc(OC)c(OC)cc4[nH]3)c(N[C@@H](C)c3ccccn3)c2n1 [Compound 51, (S)-6-(5,6-dimethoxy-1H-benzo[d]imidazol-2-yl)-2-ethyl-7-((1-(pyridin-2-yl)ethyl)-amino)-2,4-dihydro-5H-pyrazolo[4,3-b]pyridin-5-one]
IC50 [1]: 4.43 nM | IC50 [2]: 0.613 nM | IC50 [3]: 1130 nM | GI50 [4]: 30.2 nM

Structure (SMILES): COc1ccc2nc(-c3c(N[C@@H](C)c4ncccn4)c4nn(C)cc4[nH]c3=O)[nH]c2c1 (single isomer, unassigned) [Compound 1, (S*)-6-(6-Methoxy-1H-benzo[d]imidazol-2-yl)-2-methyl-7-((1-(pyrimidin-2-yl)ethyl)-amino)-2H-pyrazolo[4,3-b]pyridin-5 (4H)-one]
IC50 [3]: 987 nM | IC50 [5]: 3.2 nM | IC50 [6]: 3.05 nM

Structure (SMILES): C[C@H](Nc1c(-c2nc3ccc(F)cc3[nH]2)c(=O)[nH]c2cn(C)nc12)c1ncccn1 [Compound 28, (S)-6-(6-Fluoro-1H-benzo[d]imidazol-2-yl)-2-methyl-7-((1-(pyrimidin-2-yl)ethyl)amino)-2H-pyrazolo[4,3-b]pyridin-5 (4H)-one]
IC50 [1]: 2.15 nM | IC50 [2]: 0.595 nM | IC50 [3]: 2030 nM | GI50 [4]: 23.3 nM

Structure (SMILES): COc1cc2nc(-c3c(N[C@@H](C)c4ccccn4)c4nn(C)cc4[nH]c3=O)[nH]c2cc1OC [Compound 56, (S)-6-(5,6-dimethoxy-1H-benzo[d]imidazol-2-yl)-2-methyl-7-((1-(pyridin-2-yl)ethyl)-amino)-2H-pyrazolo[4,3-b]pyridin-5 (4H)-one]
IC50 [1]: 1.56 nM | IC50 [2]: 0.296 nM | IC50 [3]: 857 nM | IC50 [5]: 7.92 nM | IC50 [6]: 5.16 nM

Structure (SMILES): CCn1cc2[nH]c(=O)c(-c3nc4cc(OC)c(OCCOC)cc4[nH]3)c(N[C@@H](C)c3ncccn3)c2n1 [Compound 38, (S)-2-ethyl-6-(5-methoxy-6-(2-methoxyethoxy)-1H-benzo[d]imidazol-2-yl)-7-((1-(pyrimidin-2-yl)ethyl)amino)-2H-pyrazolo[4,3-b]pyridin-5 (4H)-one]
IC50 [1]: 0.98 nM | IC50 [2]: 0.568 nM | IC50 [3]: 532 nM | GI50 [4]: 18.4 nM

Structure (SMILES): CCC(Nc1c(-c2nc3ccc(OC)cc3[nH]2)c(=O)[nH]c2cn(C)nc12)c1ncccn1 (single isomer, unassigned) [Compound 17, (R*)-6-(6-Methoxy-1H-benzo[d]imidazol-2-yl)-2-methyl-7-((1-(pyrimidin-2-yl)propyl)-amino)-2H-pyrazolo[4,3-b]pyridin-5 (4H)-one]
IC50 [1]: 4.87 nM | IC50 [2]: 0.957 nM | IC50 [3]: 959 nM

Structure (SMILES): CCOc1ccc2nc(-c3c(N[C@@H](C)c4ncccn4)c4nn(CC)cc4[nH]c3=O)[nH]c2c1 [Compound 50, (S)-6-(6-ethoxy-1H-benzo[d]imidazol-2-yl)-2-ethyl-7-((1-(pyrimidin-2-yl)ethyl)amino)-2,4-dihydro-5H-pyrazolo[4,3-b]pyridin-5-one]
IC50 [1]: 2.96 nM | IC50 [2]: 0.576 nM | IC50 [3]: 1100 nM

Structure (SMILES): COc1cc2[nH]c(-c3c(N[C@@H](C)c4ncccn4)c4nn(C)cc4[nH]c3=O)nc2cn1 [Compound 30, (S)-6-(6-methoxy-1H-imidazo[4,5-c]pyridin-2-yl)-2-methyl-7-((1-(pyrimidin-2-yl)ethyl)-amino)-2H-pyrazolo[4,3-b]pyridin-5 (4H)-one]
IC50 [1]: 1.13 nM | IC50 [2]: 0.414 nM | IC50 [3]: 1200 nM

Further compounds by falling IC50 [1], results first:

IC50 [1]: 6.21 nM | IC50 [2]: 1.78 nM | GI50 [4]: 34.4 nM
Structure (SMILES): CCn1cc2[nH]c(=O)c(-c3nc4c(OC)cc(OC)cc4[nH]3)c(N[C@@H](C)c3ncccn3)c2n1 [Compound 31, (S)-6-(4,6-dimethoxy-1H-benzo[d]imidazol-2-yl)-2-ethyl-7-((1-(pyrimidin-2-yl)ethyl)-amino)-2H-pyrazolo[4,3-b]pyridin-5 (4H)-one]
IC50 [3]: 1940 nM

IC50 [1]: 2.16 nM | IC50 [2]: 0.407 nM | GI50 [4]: 12.5 nM
Structure (SMILES): CCC(Nc1c(-c2nc3cc(OC)c(OC)cc3[nH]2)c(=O)[nH]c2cn(C)nc12)c1ncccn1 (single isomer, unassigned) [Compound 42, (S*)-6-(5,6-dimethoxy-1H-benzo[d]imidazol-2-yl)-2-methyl-7-((1-(pyrimidin-2-yl)-propyl)amino)-2H-pyrazolo[4,3-b]pyridin-5 (4H)-one]
IC50 [3]: 591 nM

IC50 [1]: 0.853 nM | IC50 [2]: 0.281 nM
Structure (SMILES): CCOc1cc2nc(-c3c(N[C@@H](C)c4ncccn4)c4nn(CC)cc4[nH]c3=O)[nH]c2cc1OCC [Compound 52, (S)-6-(5,6-diethoxy-1H-benzo[d]imidazol-2-yl)-2-ethyl-7-((1-(pyrimidin-2-yl)ethyl)-amino)-2H-pyrazolo[4,3-b]pyridin-5 (4H)-one]
IC50 [3]: 653 nM | IC50 [5]: 5.66 nM | IC50 [6]: 6.67 nM

IC50 [1]: 0.327 nM | IC50 [2]: 0.183 nM
Structure (SMILES): CCOc1cc2[nH]c(-c3c(N[C@@H](C)c4ncccn4)c4nn(C)cc4[nH]c3=O)nc2cc1OC [Compound 7, (S)-6-(6-ethoxy-5-methoxy-1H-benzo[d]imidazol-2-yl)-2-methyl-7-((1-(pyrimidin-2-yl)ethyl)amino)-2,4-dihydro-5H-pyrazolo[4,3-b]pyridin-5-one]
IC50 [3]: 713 nM | IC50 [5]: 3.64 nM | IC50 [6]: 2.79 nM
